Series [1] can be described thus: pH of salt solutions. It counts as physicochemical.
Series [2] is described as follows: solubility of active agent, its salts and cosolvent solutions. Conditions: for solubility (in words): salts of the active agent.
For series [3], the system named is calcium channel. The note with it: statement in background; cited from earlier work.
The subject of series [4] is rat tail vein. As to the kind of experiment: rat tail vein injection (irritation / in vivo acceptability). Here is the method: In vivo acceptability is tested by injecting a small amount of the formulation into the tail vein of a rat or other suitable species, for example, as described by Waynforth, Experimental and Surgical Technique in the Rat, Chapter 2, pages 42-45 (Academic Press, 1980).
This procedure is a modification of a procedure described by Waynforth in Experimental and Surgical Technique in the Rat, Chapter 2, pages 42-45 (Academic Press, 1980). The rat tail vein is dilated by warming, and a test formulation administered by injection, using a 25G needle, with the rat held in a restrainer, and a heat source close enough to keep the tail warm during injection. The tail is observed for signs of irritation, which are outwardly apparent and can be detected by the presence of bruising, swelling, lack of flexibility, lumps, or by observation of distress in the animal upon subsequent administration.

A short description of series [5]: precipitation on dropping the injectable formulation into pH 7.4 phosphate buffer. It counts as physicochemical. The note with it: approx. 1 ml injectable formulation into 50 ml 0.1M pH 7.4 phosphate buffer.
Series [6] is described as follows: stability testing of formulations at 25° C. (content, pH, appearance). The class given is physicochemical. On the procedure: Stability testing of the formulations is done, for example, as described in Remington's Pharmaceutical Sciences. […] A formulation is prepared and placed in suitable container, storing it at 25° C., and periodically observing the appearance of the samples and removing aliquots to be tested for concentration and pH.
At periodic intervals, the appearance of the samples was noted, and aliquots were withdrawn and assayed for active agent concentration and pH.

Series [7] relates to rats.
A short description of series [8]: physchem.
Series [9] concerns baboons.
Series [10] in a line: compatibility with infusion fluids. Conditions: wide range of commercially available infusion fluids. It counts as physicochemical. Here is the method:
Compatibility with infusion fluids is determined by adding a formulation of the invention to an infusion fluid and inspecting the resulting mixture for formation of any precipitate, discoloration, or the appearance of other physical changes, monitoring the solution active ingredient concentration to ensure no loss in potency, which could lead to decreases in efficacy.

For series [11] the following is noted: in vivo; cited from earlier work.

Where a name gives a salt, the structure may show the parent alone.

Regarding `Cc1ccc(-c2nc(CN3CCN(C(c4ccccc4)c4ccccc4)CC3)c(C)[nH]2)cc1`, in series [1] (when prepared at the desired concentrations), the “pH relative to optimum range for physiological compatibility” value is recorded as “outside the optimum pH range for physiological compatibility”.
On to `Cc1ccc(-c2nc(CN3CCN(C(c4ccccc4)c4ccccc4)CC3)c(C)[nH]2)cc1` [1-Diphenylmethyl-4-[(2-(4-methylphenyl)-5-methyl-1H-imidazol-4-yl)methyl]piperazine], for which the solubility problems entry in series [2] (particularly at physiological pH, in formulation process and upon administration to test animals) is on record as “significant solubility problems”. Moreover, in series [3], the calcium channel antagonist entry was “potent calcium channel antagonist”.
`Cc1ccc(-c2nc(CN3CCN(C(c4ccccc4)c4ccccc4)CC3)c(C)[nH]2)cc1.Cl.Cl.Cl` [1-diphenylmethyl-4-[(2-(4-methylphenyl)-5-methyl-1H-imidazol-4-yl)methyl]piperazine, trihydrochloride]: the “signs of pain / irritation upon injection” value in series [4] (8 mg/ml solution, pH about 3-3.5, rat tail vein) is “bruising of the vein, hardening of the tail and other signs of pain upon injection”. In addition, the “compound precipitation in rat tail veins” value in [4] (8 mg/ml solution, pH about 3-3.5 adjusted with sodium hydroxide, shortly after injection) is “compound precipitation was observed in rat tail veins shortly after injection”. Also, in series [5], the precipitate at interface entry is given as “a white precipitate was observed immediately at the interface between the two liquids”.
Take `Cc1ccc(-c2nc(CN3CCN(C(c4ccccc4)c4ccccc4)CC3)c(C)[nH]2)cc1` [ascorbic acid salt]: in series [2], the “solubility (in words)” value is on record as “relatively insoluble”. Moreover, in [6] (solutions of ascorbic acid salt, on standing), the “discolouration of solutions upon standing” value is listed as “rapid discolouration upon standing”.
For the molecule `Cc1ccc(-c2nc(C)c(CN3CCN(C(c4ccccc4)c4ccccc4)CC3)[nH]2)cc1` [aspartic], the “changes in properties of salts” value in [2] (salts investigated for adequate solubility at physiologically acceptable pH and reduced irritancy) is “only moderate changes in properties”.
In the case of `Cc1ccc(-c2nc(C)c(CN3CCN(C(c4ccccc4)c4ccccc4)CC3)[nH]2)cc1` [malonic], in series [2], the “solubility (in words)” value is recorded as “did not have adequate solubility”.
The same measure, in the same setting: in the case of `Cc1ccc(-c2nc(C)c(CN3CCN(C(c4ccccc4)c4ccccc4)CC3)[nH]2)cc1` [oxalic] it was “did not have adequate solubility”.
In the case of `Cc1ccc(-c2nc(CN3CCN(C(c4ccccc4)c4ccccc4)CC3)c(C)[nH]2)cc1` [sulfuric acid salt], the pH in solution in [1] was 1.76.
On to `Cc1ccc(-c2nc(CN3CCN(C(c4ccccc4)c4ccccc4)CC3)c(C)[nH]2)cc1.O=C(O)C(O)C(O)C(=O)O` [tartrate salt, 1-diphenylmethyl-4-[(2-(4-methylphenyl)-5-methyl-1H -imidazol-4-yl)methyl]piperazine tartrate], for which, in series [1], the pH in solution entry is listed as “greater than 3.0”. Moreover, the “physical and chemical stability of the solution” value in [6] (storage at 25° C.) was “at least 12 months”. For the same molecule, the “administration over 28 days” value in [7] and in series [9] was “successful administration” in each case. The irritancy levels entry in series [4] (one week tail vein injection trial) was “Acceptable irritancy levels”. Moreover, the solubility in [8] was over 4000 µg/mL. For the same molecule, the “compatibility with infusion fluids” value in series [10] is listed as “compatible with a wide range of commercially available infusion fluids”.
With `Clc1ccccc1CN1CCc2sccc2C1` [ticlopidine], the “reduction of the risk of a second ischemic event” value in [11] is reported as “demonstrated to reduce the risk of a second ischemic event”.
